Test results published in ChEMBL document CHEMBL1201862, “PubChem BioAssay data set” (2004).
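Assay format: 96-well plates, 48-hour exposure. Abbreviation: GI50, concentration required for 50% inhibition of growth.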 Active and inactive are the calls of the source. No stated cut-off is given here; in the data, active = GI50 up to about 1.1 µM and inactive = higher.

What was measured:
Assay in all cases: growth of human tumour cells (NCI), 48 h
HOP-92 = tested on: HOP-92
KM-20L2 = tested on: KM-20L2
SF-268 = tested on: SF-268
TK-10 = tested on: TK-10
HCT-15 = tested on: HCT-15
LXFL 529 = tested on: LXFL 529
HL-60 = tested on: HL-60
OVCAR-5 = tested on: OVCAR-5
SK-OV-3 = tested on: SK-OV-3
U-251 = tested on: U-251
K562 = tested on: K562
UO-31 = tested on: UO-31
COLO 205 = tested on: COLO 205
HCT-116 = tested on: HCT-116
A549 = tested on: A549
A498 = tested on: A498
EKVX = tested on: EKVX
NCI-H23 = tested on: NCI-H23
MOLT-4 = tested on: MOLT-4
SN12C = tested on: SN12C
OVCAR-8 = tested on: OVCAR-8
SF-539 = tested on: SF-539
SW-620 = tested on: SW-620
RXF 393 = tested on: RXF 393
SK-MEL-2 = tested on: SK-MEL-2
ACHN = tested on: ACHN
LOX IMVI = tested on: LOX IMVI
HOP-18 = tested on: HOP-18
SK-MEL-28 = tested on: SK-MEL-28
Malme-3M = tested on: Malme-3M
IGROV-1 = tested on: IGROV-1
SNB-75 = tested on: SNB-75
M14 = tested on: M14
DLD-1 = tested on: DLD-1
786-0 = tested on: 786-0
UACC-62 = tested on: UACC-62
UACC-257 = tested on: UACC-257
NCI-H522 = tested on: NCI-H522
HOP-62 = tested on: HOP-62
NCI-H460 = tested on: NCI-H460
SF-295 = tested on: SF-295
CCRF-CEM = tested on: CCRF-CEM
NCI-H226 = tested on: NCI-H226
OVCAR-4 = tested on: OVCAR-4
CAKI-1 = tested on: CAKI-1
HCC 2998 = tested on: HCC 2998
KM12 = tested on: KM12
SK-MEL-5 = tested on: SK-MEL-5
DMS-273 = tested on: DMS-273
OVCAR-3 = tested on: OVCAR-3
HT-29 = tested on: HT-29
SNB-19 = tested on: SNB-19
M19-MEL = tested on: M19-MEL
XF498 = tested on: XF498
DMS-114 = tested on: DMS-114
SNB-78 = tested on: SNB-78
SR = tested on: SR
RPMI-8226 = tested on: RPMI-8226

Cc1c(C(=O)O)n(C)c(=O)n(C)c1=O
GI50 (HOP-92): > 100 µM (inactive) | GI50 (KM-20L2): > 100 µM (inactive) | GI50 (SF-268): > 100 µM (inactive) | GI50 (TK-10): > 100 µM (inactive) | GI50 (HCT-15): > 100 µM | GI50 (LXFL 529): > 100 µM (inactive) | GI50 (HL-60): > 100 µM (inactive) | GI50 (OVCAR-5): > 100 µM (inactive) | GI50 (SK-OV-3): > 100 µM (inactive) | GI50 (U-251): > 100 µM (inactive) | GI50 (K562): > 100 µM (inactive) | GI50 (UO-31): > 100 µM (inactive) | GI50 (COLO 205): > 100 µM (inactive) | GI50 (HCT-116): > 100 µM (inactive) | GI50 (A549): > 100 µM (inactive) | GI50 (A498): > 100 µM (inactive) | GI50 (EKVX): > 100 µM (inactive) | GI50 (NCI-H23): > 100 µM (inactive) | GI50 (MOLT-4): > 100 µM (inactive) | GI50 (SN12C): > 100 µM (inactive) | GI50 (OVCAR-8): > 100 µM (inactive) | GI50 (SF-539): > 100 µM (inactive) | GI50 (SW-620): > 100 µM (inactive) | GI50 (RXF 393): > 100 µM (inactive) | GI50 (SK-MEL-2): > 100 µM (inactive) | GI50 (ACHN): > 100 µM (inactive) | GI50 (LOX IMVI): > 100 µM (inactive) | GI50 (HOP-18): > 100 µM (inactive) | GI50 (SK-MEL-28): > 100 µM (inactive) | GI50 (Malme-3M): > 100 µM (inactive) | GI50 (IGROV-1): > 100 µM (inactive) | GI50 (SNB-75): > 100 µM (inactive) | GI50 (M14): > 100 µM (inactive) | GI50 (DLD-1): > 100 µM (inactive) | GI50 (786-0): > 100 µM (inactive) | GI50 (UACC-62): > 100 µM (inactive) | GI50 (UACC-257): > 100 µM (inactive) | GI50 (NCI-H522): > 100 µM (inactive) | GI50 (HOP-62): > 100 µM (inactive) | GI50 (NCI-H460): > 100 µM (inactive) | GI50 (SF-295): > 100 µM (inactive) | GI50 (CCRF-CEM): > 100 µM (inactive) | GI50 (NCI-H226): > 100 µM (inactive) | GI50 (OVCAR-4): > 100 µM (inactive) | GI50 (CAKI-1): > 100 µM (inactive) | GI50 (HCC 2998): > 100 µM (inactive) | GI50 (KM12): > 100 µM (inactive) | GI50 (SK-MEL-5): > 100 µM (inactive) | GI50 (DMS-273): > 100 µM (inactive) | GI50 (OVCAR-3): > 100 µM (inactive) | GI50 (HT-29): > 100 µM (inactive) | GI50 (SNB-19): > 100 µM (inactive) | GI50 (M19-MEL): > 100 µM (inactive) | GI50 (XF498): > 100 µM (inactive)

CC(=O)OCCOCNC(=S)N/N=C(\C)c1cccs1
GI50 (DMS-114): > 100 µM (inactive) | GI50 (KM-20L2): > 100 µM (inactive) | GI50 (SF-268): > 100 µM (inactive) | GI50 (TK-10): > 100 µM (inactive) | GI50 (HCT-15): > 100 µM | GI50 (LXFL 529): > 100 µM (inactive) | GI50 (HL-60): > 100 µM (inactive) | GI50 (OVCAR-5): > 100 µM (inactive) | GI50 (SK-OV-3): > 100 µM (inactive) | GI50 (SNB-78): > 100 µM (inactive) | GI50 (U-251): > 100 µM (inactive) | GI50 (K562): > 100 µM (inactive) | GI50 (UO-31): > 100 µM (inactive) | GI50 (COLO 205): > 100 µM (inactive) | GI50 (HCT-116): > 100 µM (inactive) | GI50 (A549): > 100 µM (inactive) | GI50 (A498): > 100 µM (inactive) | GI50 (EKVX): > 100 µM (inactive) | GI50 (NCI-H23): > 100 µM (inactive) | GI50 (MOLT-4): > 100 µM (inactive) | GI50 (SN12C): > 100 µM (inactive) | GI50 (OVCAR-8): > 100 µM (inactive) | GI50 (SF-539): > 100 µM (inactive) | GI50 (SW-620): > 100 µM (inactive) | GI50 (RXF 393): > 100 µM (inactive) | GI50 (SK-MEL-2): > 100 µM (inactive) | GI50 (ACHN): > 100 µM (inactive) | GI50 (LOX IMVI): > 100 µM (inactive) | GI50 (HOP-18): > 100 µM (inactive) | GI50 (SK-MEL-28): > 100 µM (inactive) | GI50 (Malme-3M): > 100 µM (inactive) | GI50 (IGROV-1): > 100 µM (inactive) | GI50 (SNB-75): > 100 µM (inactive) | GI50 (M14): > 100 µM (inactive) | GI50 (DLD-1): > 100 µM (inactive) | GI50 (786-0): > 100 µM (inactive) | GI50 (UACC-62): > 100 µM (inactive) | GI50 (UACC-257): > 100 µM (inactive) | GI50 (NCI-H522): > 100 µM (inactive) | GI50 (HOP-62): > 100 µM (inactive) | GI50 (NCI-H460): > 100 µM (inactive) | GI50 (SF-295): > 100 µM (inactive) | GI50 (CCRF-CEM): 61.8 µM (inactive) | GI50 (NCI-H226): > 100 µM (inactive) | GI50 (OVCAR-4): > 100 µM (inactive) | GI50 (HCC 2998): > 100 µM (inactive) | GI50 (KM12): > 100 µM (inactive) | GI50 (SK-MEL-5): > 100 µM (inactive) | GI50 (SR): > 100 µM (inactive) | GI50 (DMS-273): > 100 µM (inactive) | GI50 (OVCAR-3): > 100 µM (inactive) | GI50 (RPMI-8226): > 100 µM (inactive) | GI50 (HT-29): > 100 µM (inactive) | GI50 (SNB-19): > 100 µM (inactive) | GI50 (M19-MEL): > 100 µM (inactive) | GI50 (XF498): > 100 µM (inactive)
